Measured values taken from patent US5496452A, “Substrate regenerating biosensor” (priority 1990, dated 1996).

What was measured:
[1] = target: T1, horseradish peroxidase (HRP) (Armoracia rusticana, UniProt P00433); test: Ferrocenes as mediators for HRP reduction: ring current at rotating ring disc electrode; assay type: biochemical; settings: ferrocene derivative 0.5 mM, HRP 2.5 μM, disc potential -1.2V; for Relative Current: relative to hydroxymethyl ferrocene = 100%
T1 construct: purchased Biozyme
T1 sequence (P00433 31-353): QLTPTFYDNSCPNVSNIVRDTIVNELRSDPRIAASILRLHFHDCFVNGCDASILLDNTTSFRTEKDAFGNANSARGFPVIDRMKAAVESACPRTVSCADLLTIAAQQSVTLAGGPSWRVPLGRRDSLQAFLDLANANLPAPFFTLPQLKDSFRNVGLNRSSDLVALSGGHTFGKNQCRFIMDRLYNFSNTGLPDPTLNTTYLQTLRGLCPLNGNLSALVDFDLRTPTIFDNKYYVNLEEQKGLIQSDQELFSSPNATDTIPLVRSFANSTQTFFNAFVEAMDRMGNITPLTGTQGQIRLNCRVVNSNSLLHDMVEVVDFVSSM
Source text: The electrocatalytic activity of HRP as shown in FIGS. 1 and 2 was typically assessed by immersing the rotating ring disc electrode in a buffered solution containing peroxidase and hydroxymethyl ferrocene mediator. The electrode was rotated at a constant speed to control the transport of material to the disc electrode and subsequently out to the ring. A cathodic potential sweep was applied to the glassy carbon disc at 0.1V/S. The platinum ring was held at constant potential of 0V and the current at the ring as a function of the disc potential was measured. Before determination of the peroxidase generated ring current, following electrode immersion, the ring current (background current) was allowed to stabilize (about 5 min). […] The catalytic current was defined as the net reductive current occurring at a disc potential of 0 volts.
The actual profile of the reduction current seen at the ring electrode is a function of the concentrations of the enzyme and substrates, as well as the rotation rate of the electrode, the sweep rate at the disc and the potential of the ring. The magnitude of this current also depends on the fraction of enzymatically generated ferricinium (oxidized ferrocene) which actually reaches the ring.
(§1) Several ferrocenes shown in Table 1 were tested for their ability to act as mediators for HRP reduction.

[2] = Redox potential (Ep1/2) of ferrocene derivatives; assay type: physicochemical; settings: ferrocene derivative 0.5 mM; potentials quoted vs SCE
Source text: A four electrode analogue potentiostat (not shown) which is optionally computer controlled is used to control the potentials at the working electrodes (2) and (3). The disc electrode (2) is connected to a triangular wave generator (not shown) for potential sweeps and the ring electrode (3) is connected to a constant DC voltage source. The electrode rotation is controlled by a Ursar Scientific rotator. All potentials are quoted with respect to a saturated calomel electrode (SCE) with a 1 cm^2 platinum gauze serving as the counter electrode.
as §1

Structure (SMILES)	Current (ring current) [1] [mA]	Relative Current [1] [%]	Ep1/2 (redox potential) [2] [mv]
OC[c-]1cccc1.[Fe+2].c1cc[cH-]c1 [Hydroxymethyl Ferrocene]	3.8	100	210
O=C([O-])[c-]1cccc1.[Fe+2].c1cc[cH-]c1 [Monocarboxylate Ferrocene]	0.64	17	295
CN(C)Cc1ccc[cH-]1.[Fe+2].c1cc[cH-]c1 [Dimethylaminomethyl Ferrocene]	0.22	6	490
O=C([O-])[c-]1cccc1.O=C([O-])[c-]1cccc1.[Fe+2] [1,1' Dicarboxylate Ferrocene]	0.10	3	420
